Where “and” joins values, the source holds several entries; their conditions need not be identical. Identical values can stand only once. Like-named read-outs stand apart in the source and are kept apart here.
Columns and labels:
[1] = test system: muscarinic receptor of cerebral cortex; experiment: Displacement of 3H-NMS from the muscarinic receptor (standard curve, Fig. 1); format: binding; settings: rat cerebral cortex homogenate, 3H-NMS 3.10^-10M, increasing concentrations
Method: This dose corresponds either to 25µl of saline (4% solution) or 5 mg of a 20% gel introduced into both nasal cavities by means of micropipette. After the administration by any route the animals were transfered into metabolic cages and received 3 ml of water by stomach tube. The urine was collected 6,12 and 24 hours after administration and the excreted drug was determined with the following original method which is based on the binding affinity of the drugs to their pharmacological receptors. […] It follows from this that knowing the affinity of the drugs it is possible to assay the concentration of the drugs in biological fluids. For this a suitable in vitro receptor preparation and a radio ligand that can bind specifically to the receptor and can be displaced by the test compound is needed. In the present invention tritiated N-methyl- scopolamine (^3H-NMS) in a final concentration of 3.10^-10M that occupies 50% of the muscarinic receptors was employed. As in vitro receptor preparation we used a homogenate from rat cerebral cortex diluted 1:3000 in 20 mM HEPES, 100 mM NaCl and 10 mM MgCl2 (pH 7.4). After incubation of ^3H-NMS with the receptor preparation receptor bound ligand was separated from free ligand by centrifugation and the amountof the receptor bound ligand was measured as radioactivity (dpm) in the pellet. […]

[2] = Urinary excretion (bioavailability) after intravenous, oral and nasal administration in the rat; drug in urine determined by muscarinic receptor binding assay; format: in vivo, male Sprague-Dawley rats; settings: for amount of the compound found in the urine / dose excreted at 6 h / dose excreted at 24 h / dose excreted at 12 h: 2 mg/rat; for dose excreted at 6 h / dose excreted at 24 h / dose excreted at 12 h / bioavailability: urine, 2 mg; for dose excreted at 6 h: hours 0-6, mean of 10 rats; for dose excreted at 6 h / dose excreted at 24 h / dose excreted at 12 h: read-out: amount of the compound found in the urine; for dose excreted at 12 h: hours 6-12, mean of 10 rats
Method: As a representative drug of this class of compounds N-cyclopropylmethylscopolamine bromide was employed in the method and in the compositions according to the present invention. The bioavailability of this compound after administration by nasal and oral route has been examined and then compared by the following general method. The investigated drug was administered in equal doses by the nasal, oral and intravenous route. 6, 12 and 24 hours after administration the quantitative excretion into the urine for any of the routes of administration was studied. The total amount of the drug excreted during the investigated time intervals was expressed as percentage of the intravenously eliminated amount, considering the latter value as an equivalent for 100% bioavailability.
In detail the following studies have been carried out. For each experiment 10 male Sprague-Dawley rats, weighing 280+ 20g have been used. For the i.v. administration rats fasted for 18 hours were anaesthetized by intraperitoneal sodium pentobarbital solution 2 ml/kg corresponding to 60 mg/kg/rat. A 4% solution of the drug in buffered saline (pH=7.4) was injected into the femoral vein ([…] corresponding to 2 mg of the active ingredient). For the oral administration 18 hours fasted and conscious rats received an 0.2% solution of the drug in saline by means of a stomach tube (1 ml/rat corresponding to 2 mg of the active principle). For the nasal administration the investigated compounds, for example N-cyclopropylmethyl scopolamine bromide, was administered to 18 hours fasted and as above described anaesthetized rats at a dose of 2 mg/rat.
This dose corresponds either to 25µl of saline (4% solution) or 5 mg of a 20% gel introduced into both nasal cavities by means of micropipette. After the administration by any route the animals were transfered into metabolic cages and received 3 ml of water by stomach tube. The urine was collected 6,12 and 24 hours after administration and the excreted drug was determined with the following original method which is based on the binding affinity of the drugs to their pharmacological receptors. […] It follows from this that knowing the affinity of the drugs it is possible to assay the concentration of the drugs in biological fluids. For this a suitable in vitro receptor preparation and a radio ligand that can bind specifically to the receptor and can be displaced by the test compound is needed. In the present invention tritiated N-methyl- scopolamine (^3H-NMS) in a final concentration of 3.10^-10M that occupies 50% of the muscarinic receptors was employed. As in vitro receptor preparation we used a homogenate from rat cerebral cortex diluted 1:3000 in 20 mM HEPES, 100 mM NaCl and 10 mM MgCl2 (pH 7.4). After incubation of ^3H-NMS with the receptor preparation receptor bound ligand was separated from free ligand by centrifugation and the amountof the receptor bound ligand was measured as radioactivity (dpm) in the pellet.

SMILES: C[N+]1(CC2CC2)C2CC(OC(=O)C(CO)c3ccccc3)CC1C1OC12 (centres unmarked) [N-cyclopropylmethylscopolamine bromide]
- ability to displace 3H-NMS from the muscarinic receptor [1]: inhibit the specific binding between ^3H-NMS and receptor in a dose dependent manner
- PERCENT URINARY EXCRETION BY OTHER ROUTES RELATIVE TO I.V. ADMINISTRATION ([2]; I.V., hours 0-6, rat (relative to total 0-24 h i.v. excretion)): 88.01%
- PERCENT URINARY EXCRETION BY OTHER ROUTES RELATIVE TO I.V. ADMINISTRATION ([2]; I.V., hours 0-24, rat (reference = 100)): 100.00%
- PERCENT URINARY EXCRETION BY OTHER ROUTES RELATIVE TO I.V. ADMINISTRATION ([2]; I.V., hours 6-12, rat): 8.45%
- PERCENT URINARY EXCRETION BY OTHER ROUTES RELATIVE TO I.V. ADMINISTRATION ([2]; I.V., hours 12-24, rat): 3.54%
- PERCENT URINARY EXCRETION BY OTHER ROUTES RELATIVE TO I.V. ADMINISTRATION ([2]; NASAL GEL, hours 0-6, rat): 9.01%
- PERCENT URINARY EXCRETION BY OTHER ROUTES RELATIVE TO I.V. ADMINISTRATION ([2]; NASAL GEL, hours 0-24, rat): 22.85%
- PERCENT URINARY EXCRETION BY OTHER ROUTES RELATIVE TO I.V. ADMINISTRATION ([2]; NASAL GEL, hours 6-12, rat): 8.90%
- PERCENT URINARY EXCRETION BY OTHER ROUTES RELATIVE TO I.V. ADMINISTRATION ([2]; NASAL GEL, hours 12-24, rat): 4.94%
- PERCENT URINARY EXCRETION BY OTHER ROUTES RELATIVE TO I.V. ADMINISTRATION ([2]; NASAL SOLUTION, hours 0-6, rat): 21.23%
- PERCENT URINARY EXCRETION BY OTHER ROUTES RELATIVE TO I.V. ADMINISTRATION ([2]; NASAL SOLUTION, hours 0-24, rat): 23.00%
- PERCENT URINARY EXCRETION BY OTHER ROUTES RELATIVE TO I.V. ADMINISTRATION ([2]; NASAL SOLUTION, hours 6-12, rat): 1.43%
- PERCENT URINARY EXCRETION BY OTHER ROUTES RELATIVE TO I.V. ADMINISTRATION ([2]; NASAL SOLUTION, hours 12-24, rat): 0.34%
- PERCENT URINARY EXCRETION BY OTHER ROUTES RELATIVE TO I.V. ADMINISTRATION ([2]; OS, hours 0-6, rat): 1.02%
- PERCENT URINARY EXCRETION BY OTHER ROUTES RELATIVE TO I.V. ADMINISTRATION ([2]; OS, hours 0-24, rat): 1.40%
- PERCENT URINARY EXCRETION BY OTHER ROUTES RELATIVE TO I.V. ADMINISTRATION ([2]; OS, hours 6-12, rat): 0.30%
- PERCENT URINARY EXCRETION BY OTHER ROUTES RELATIVE TO I.V. ADMINISTRATION ([2]; OS, hours 12-24, rat): 0.08%
- release profile from urinary excretion ([2]; nasal gel, excretion nearly constant 0-6 and 6-12 hours, rat): prolonged release
- absorption after nasal administration as compared to the per oral form ([2]; nasal, both by solution and in the form of gel, rat): 16 times
- amount of the compound found in the urine ([2]; nasal, gel, hours 0-24, individual rats, 1440 min): 5.26 percentage of the total administered dose and 11.19 percentage of the total administered dose and 5.28 percentage of the total administered dose and 5.19 percentage of the total administered dose and 8.40 percentage of the total administered dose and 6.94 percentage of the total administered dose
- amount of the compound found in the urine ([2]; nasal, gel, hours 6-12, individual rats, 720 min): 2.00 percentage of the total administered dose and 4.58 percentage of the total administered dose and 1.63 percentage of the total administered dose and 2.17 percentage of the total administered dose and 3.24 percentage of the total administered dose and 2.90 percentage of the total administered dose and 1.53 percentage of the total administered dose
- amount of the compound found in the urine ([2]; nasal, gel, hours 12-24, individual rats, 1440 min): 1.19 percentage of the total administered dose and 1.9 percentage of the total administered dose and 2.0 percentage of the total administered dose and 0.63 percentage of the total administered dose and 2.04 percentage of the total administered dose and 1.18 percentage of the total administered dose
- amount of the compound found in the urine ([2]; nasal, solution, hours 0-6, individual rats, 360 min): 4.12 percentage of the total administered dose and 6.25 percentage of the total administered dose and 5.53 percentage of the total administered dose and 8.86 percentage of the total administered dose and 2.93 percentage of the total administered dose and 2.68 percentage of the total administered dose and 4.82 percentage of the total administered dose and 11.42 percentage of the total administered dose and 5.17 percentage of the total administered dose and 4.55 percentage of the total administered dose
- amount of the compound found in the urine ([2]; nasal, solution, hours 0-24, individual rats, 1440 min): 4.52 percentage of the total administered dose and 6.59 percentage of the total administered dose and 5.75 percentage of the total administered dose and 9.23 percentage of the total administered dose and 3.17 percentage of the total administered dose and 3.11 percentage of the total administered dose and 5.55 percentage of the total administered dose and 11.88 percentage of the total administered dose and 6.12 percentage of the total administered dose and 5.07 percentage of the total administered dose
- amount of the compound found in the urine ([2]; nasal, solution, hours 6-12, individual rats, 720 min): 0.33 percentage of the total administered dose and 0.25 percentage of the total administered dose and 0.13 percentage of the total administered dose and 0.23 percentage of the total administered dose and 0.19 percentage of the total administered dose and 0.39 percentage of the total administered dose and 0.65 percentage of the total administered dose and 0.28 percentage of the total administered dose and 0.86 percentage of the total administered dose and 0.44 percentage of the total administered dose
- dose excreted at 6 h ([2]; rat, nasal, gel): 2.39%
- dose excreted at 24 h ([2]; rat, nasal, gel, hours 0-24, mean of 10 rats): 6.06%
- dose excreted at 12 h ([2]; rat, nasal, gel): 2.36%
- dose excreted at 24 h ([2]; rat, nasal, gel, hours 12-24, mean of 10 rats): 1.31%
- dose excreted at 6 h ([2]; rat, nasal, solution): 5.63%
- dose excreted at 24 h ([2]; rat, nasal, solution, hours 0-24, mean of 10 rats): 6.1%
- dose excreted at 12 h ([2]; rat, nasal, solution): 0.38%
- dose excreted at 24 h ([2]; rat, nasal, solution, hours 12-24, mean of 10 rats): 0.09%
- dose excreted at 6 h ([2]; rat, iv, intravenous): 23.2%
- dose excreted at 24 h ([2]; rat, iv, intravenous, hours 0-24, individual rats): 31%
- dose excreted at 24 h ([2]; rat, iv, intravenous, hours 0-24, mean of 10 rats): 26.5%
- dose excreted at 12 h ([2]; rat, iv, intravenous): 2.24%
- dose excreted at 24 h ([2]; rat, iv, intravenous, hours 12-24, mean of 10 rats): 0.94%
- dose excreted at 6 h ([2]; rat, po, oral): 0.27%
- dose excreted at 24 h ([2]; rat, po, oral, hours 0-24, mean of 10 rats): 0.37%
- dose excreted at 12 h ([2]; rat, po, oral): 0.08%
- dose excreted at 24 h ([2]; rat, po, oral, hours 12-24, mean of 10 rats): 0.02%
- bioavailability ([2]; after oral administration, rat, read-out: bioavailability): 1.4%
- bioavailability ([2]; nasal route, both galenic formulations, solution and gel, rat, read-out: absolute bioavailability): 23%
